The text below walks through data of US20250353835A1, “N-TETRAZOLYL ARYL UREA-BASED DERIVATIVES, PREPARATION METHOD THEREFOR, AND USE THEREOF” (Hangzhou Yirui Pharmaceutical Technology Co., Ltd, priority 2022, published 2025).

As a reminder, the pIC50 is the negative decadic logarithm of the IC50, by convention in mol/L.

Each structure is given as a SMILES string. pIC50: −log10 of the molar value.

The test addresses T1, human B1R (Homo sapiens, UniProt P46663).
T1 construct: host or cells: HEK293
T1 sequence (P46663 1-353): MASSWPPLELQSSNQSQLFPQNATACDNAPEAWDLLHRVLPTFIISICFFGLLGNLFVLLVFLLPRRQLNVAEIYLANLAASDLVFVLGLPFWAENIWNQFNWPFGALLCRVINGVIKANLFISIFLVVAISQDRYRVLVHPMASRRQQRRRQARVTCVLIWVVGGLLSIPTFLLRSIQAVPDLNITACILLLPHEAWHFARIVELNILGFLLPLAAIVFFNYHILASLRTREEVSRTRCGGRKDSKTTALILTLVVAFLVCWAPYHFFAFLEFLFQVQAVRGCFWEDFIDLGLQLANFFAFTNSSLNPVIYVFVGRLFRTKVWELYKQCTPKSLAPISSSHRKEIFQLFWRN
Description: FLIPR calcium ion flux assay, inhibitory activity against human B1R. The test is classed as cell-based. The note with it: HEK293 cells stably expressing human B1R; agonist [Lys-des-Arg9]-Bradykinin 4.6 nM (EC80); FLIPR method. How it is done:
The inhibitory activity of the compounds against human B1R and B2R channels was determined by calcium ion flux assay using fluorometric imaging plate reader (FLIPR method). See literatures of Lee, Chen et al. for the method. [Lee et al. 2008][Chen et al. 2011]
1. Cell culture: HEK293 recombinant cell lines (WuXi AppTec, Shanghai, China) stably expressing human B1R and B2R were cultured in DMEM (Invitrogen, Cat #11965) medium containing 10% calf serum (Excellbio, Cat #FSP500), 5 μg/ml Geneticin (Invitrogen, Cat #10131) and Penicillin/Streptomycin (Invitrogen, Cat #15140). The incubator conditions were 37° C. and ambient humidity containing 5% CO2.
2. Preparation of the cell assay plate: B1R and B2R cells were seeded in a 384-well assay plate (Greiner, Cat #781090) at a density of 20,000 cells per well (20 μl/well), and cultured overnight at 37° C. in an incubator with 5% CO2. The next day, Fluo-4 Direct™ Loading Buffer (containing 5 mM Probenicid) containing 2× (8 μM) Fluo-4 Direct (Invitrogen, Cat #F10471) was added to each of the wells. The cells were cultured at 37° C. for 50 min, and then culture for at the room temperature 10 min.
3. Preparation of the compound assay plate: The compound was dissolved in 100% DMSO to make a 30 mM stock solution and stored at −20° C. On the day of use, the stock solution of the compound was thawed at the room temperature. Each of the compounds was serially diluted at 1:5 in DMSO culture medium with a starting concentration of 30 μM for 9 concentration points on a 384-well plate. Each of compounds was diluted in duplicate for testing. [Des-Arg10]-HOE140 was used as a positive control compound, and diluted in the same manner with a starting concentration of 3 μM.
4. FLIPR assay: The cell assay plate was placed in a FLIPR instrument ([…]). The compounds in the compound assay plate were added to the corresponding wells on the cell assay plate (10 μL/well) using an automatic program. The calcium ion fluorescence signal was recorded to determine whether the compound may have agonist activity. After 10 minutes, a B1R agonist [Lys-des-Arg9]-Bradykinin2 (10 μL/well) with a final concentration of 4.6 nM (EC80) was added to each of the wells to stimulate the generation of intracellular calcium ion flux signals. The Ca^++-dependent fluorescence signal was continuously monitored at a wavelength of 538 nm to analyze the inhibitory activity of the compound.
5. Data analysis: The data was collected and analyzed by a FLIPR program. The inhibitory (or agonist) activity of the compound at each concentration was evaluated by the fluorescence peak. The IC50 values of the compounds were calculated using EXCEL and PRISM programs.
Regarding `Cn1ncc2cc(-c3c(F)cc(NC(=O)N4CCC(C(C)(C)C)CC4)cc3-c3nn[nH]n3)ccc21` [Compound 32, 4-(tert-butyl)-N-(3-fluoro-4-(1-methyl-1H-indazol-5-yl)-5-(2H-tetrazol-5-yl)phenyl)piperidine-1-carboxamide], the negative-log IC50 (pIC50) is 7.85.

On to `COc1ccc(-c2c(F)cc(NC(=O)N3CCC(C(C)(C)C)CC3)cc2-c2nn[nH]n2)cc1Cl` [Compound 33, 4-(tert-butyl)-N-(3′-chloro-2-fluoro-4′-methoxy-6-(2H-tetrazol-5-yl)-[1,1′-biphenyl]-4-yl)piperidine-1-carboxamide], for which the pIC50 is 7.84.

Consider `Cn1ncc2cc(-c3c(F)cc(NC(=O)N4CCC(C(F)(F)F)CC4)cc3-c3nn[nH]n3)ccc21` [Compound 34, N-(3-fluoro-4-(1-methyl-1H-indazol-5-yl)-5-(2H-tetrazol-5-yl)phenyl)-4-(trifluoromethyl)piperidine-1-carboxamide], for which the negative-log IC50 (pIC50) was 7.67.

For the compound `COc1ccc(-c2ncc(NC(=O)N3CCC(C(C)(C)C)CC3)cc2-c2nn[nH]n2)cc1OC` [Compound 35, 4-(tert-butyl)-N-(6-(3,4-dimethoxyphenyl)-5-(2H-tetrazol-5-yl)pyrid-3-yl)piperidine-1-carboxamide], the negative-log IC50 (pIC50) is 7.03.

Consider `Cn1ncc2cc(-c3ncc(NC(=O)N4CCC(C(C)(C)C)CC4)cc3-c3nn[nH]n3)ccc21` [Compound 36, 4-(tert-butyl)-N-(6-(1-methyl-1H-indazol-5-yl)-5-(2H-tetrazol-5-yl)pyrid-3-yl)piperidine-1-carboxamide], for which the negative-log IC50 (pIC50) is 7.32.

`CCOC(=O)c1ncc(NC(=O)N2CCC(C(C)(C)C)CC2)cc1-c1nn[nH]n1` [Compound 37, ethyl 5-(4-(tert-butyl)piperidine-1-formamido)-3-(2H-tetrazol-5-yl)pyridylcarboxylate]: the negative logarithm of the IC50 (pIC50) is 7.14.

Consider `CC(C)(C)C1CCN(C(=O)Nc2cnc(C(=O)OC3CCCCC3)c(-c3nn[nH]n3)c2)CC1` [Compound 38, cyclohexyl 5-(4-(tert-butyl)piperidine-1-formamido)-3-(2H-tetrazol-5-yl)pyridylcarboxylate], for which the negative logarithm of the IC50 (pIC50) is 7.08.

For `CC(C)(C)C1CCN(C(=O)Nc2ccc(-c3ccc4c(c3)OCO4)c(-c3nn[nH]n3)c2)CC1` [Compound 39, N-(4-(benzo[d][1,3]dioxolan-5-yl)-3-(2H-tetrazol-5-yl)phenyl)-4-(tert-butyl)piperidine-1-carboxamide], the pIC50 is 7.08.

As to `CC(C)(C)C1CCN(C(=O)Nc2ccc(C3CCOCC3)c(-c3nn[nH]n3)c2)CC1` [Compound 40, 4-(tert-butyl)-N-(4-(tetrahydro-2H-pyran-4-yl)-3-(2H-tetrazol-5-yl)phenyl)piperidine-1-carboxamide], the pIC50 was 5.69.

For `CC(C)(C)C1CCN(C(=O)Nc2ccc(C3C=COCC3)c(-c3nn[nH]n3)c2)CC1` (stereo not shown) [Compound 41, 4-(tert-butyl)-N-(4-(3,4-dihydro-2H-pyran-4-yl)-3-(2H-tetrazol-5-yl)phenyl)piperidine-1-carboxamide], the negative logarithm of the IC50 (pIC50) is 6.35.

For the compound `CC(C)(C)C1CCN(C(=O)Nc2ccc(-c3ccc(C(F)F)nc3)c(-c3nn[nH]n3)c2)CC1` [Compound 42, 4-(tert-butyl)-N-(4-(6-(difluoromethyl)pyrid-3-yl)-3-(2H-tetrazol-5-yl)phenyl)piperidine-1-carboxamide], the pIC50 is 6.96.

Take `CC(C)(C)C1CCN(C(=O)Nc2ccc(C(=O)OC3CCCC3)c(-c3nn[nH]n3)c2)CC1` [Compound 43, cyclopentyl 4-(4-(tert-butyl)piperidine-1-formamido)-2-(2H-tetrazol-5-yl)benzoate]: the pIC50 was 7.02.

Regarding `CC(C)(C)C1CCN(C(=O)Nc2ccc(C(=O)OC3CCOC3)c(-c3nn[nH]n3)c2)CC1` (stereo not shown) [Compound 44, tetrahydrofuran-3-yl 4-(4-(tert-butyl)piperidine-1-formamido)-2-(2H-tetrazol-5-yl)benzoate], the pIC50 is 6.97.
